Experimental data taken from patent US4443619A, “Chlorocitric acids” (Hoffmann-La Roche Inc., priority 1981, dated 1984).

Columns and labels:
[1] = Comparative anorectic activity: food consumption in meal-fed rats (acute, Example 13); format: in vivo, Charles River female rats; settings: 3 hr meal, mean ± S.E.
Protocol: Charles River female rats (Charles River Breeding Laboratories, Wilmington, Mass.), weighing 150 to 175 g, were individually housed in wire-bottomed cages in a temperature-regulated (22° C.) light-controlled room (12 hr light, 6 a.m. to 6 p.m. and 12 hr dark, 6 p.m. to 6 a.m.). Animals were fasted 48 hr, then meal-fed the 70% glucose diet described by A. C. Sullivan, et al., J. Nutrition, 101, 265 (1971) from 8 to 11 a.m. Following 5 to 13 days alimentation on the meal-feeding regimen, rats were dosed with the appropriate compounds orally by intubation 1/2 hr before the 3 hr meal. Food cups were weighed immediately after the meal. The control group consists of 31 rats while each drug treated group consists of 5 to 12 rats.
The G-70 diet consisted of 70% glucose, 23% vitamin-free casein, 5% Phillips and Hart salt mixture IV, 1% corn oil, 1% complete vitamin mixture, and 40 g/kg cellulose. To ensure complete uniformity, all diets were mixed with a twen-shell dry blender equipped with an itensifier bar (Patterson-Kelly Co., East Stroudsburg, Pa.).

[2] = Anorectic effect in 8 hour meal-fed Zucker rats (Example 17); format: in vivo, lean (Fa/-) and obese (fa/fa)
Protocol: Lean (Fa/-) Zucker rats and obese (fa/fa) Zucker rats of both sexes were individually housed in wire-bottomed cages in a temperature-regulated (22° C.) light-controlled room (12 hr light, 6 a.m. to 6 p.m. and 12 hr dark, 6 p.m. 6 a.m.). The animals were fed a high carbohydrate (70% glucose) diet ad libitum for 13 days, dosed with the indicated compounds by oral intubation for 9 days and allowed to recover for 3 days. The animals were then meal fed from 8 a.m. to 4 p.m. for a period of 5 days, following which they were continued on the same meal schedule for an additional 6 days. During the 6-day period, the animals were administered the indicated compounds by oral intubation at 8 a.m. and 12 p.m. Food cups were weighed immediately after the meal.

[3] = Body weight gain in 8 hour meal-fed Zucker rats (Example 18); format: in vivo, lean (Fa/-) and obese (fa/fa); settings: 1.32 mmoles/kg b.i.d. oral, 6 days, mean ± S.E.
Protocol: Lean (Fa/-) Zucker rats and obese (fa/fa) Zucker rats of both sexes were individually housed in wire-bottomed cages in a temperature-regulated (22° C.) light-controlled room (12 hr light, 6 a.m. to 6 p.m. and 12 hr dark, 6 p.m. to 6 a.m.). The animals were fed a high carbohydrate (70% glucose) diet ad libitum for 13 days, dosed with the indicated compounds by oral intubation for 9 days and allowed to recover for 3 days. The animals were then meal fed from 8 a.m. to 4 p.m. for a period of 5 days, following which they were continued on the same meal schedule for an additional 6 days. During the 6-day period, the animals were administered the indicated compounds by oral intubation at 8 a.m. and 12 p.m. Body weight gain during the 6-day period was determined.

[4] = tested on: Fatty Acid Synthesis; test: Fatty acid synthesis in pair-feeding experiments in rats (Example 24); format: in vivo, female rats of the Charles River CD strain; settings: 1.32 mmoles/kg
Protocol: Female rats of the Charles River CD strain (Charles River Breeding Laboratories, Wilmington, Mass.) weighing 120-160 g (ca. […] old) were housed individually in wire-bottomed cages in a temperature-regulated (22 C.), light-controlled room (12 hour light 6 A.M.-6 P.M., and dark 6 P.M.-6 A.M.). They had free access to water and were fed a commercial diet (Purina Rodent Chow, Ralston Purina Co., St. Louis, Mo.) ad libitum for at least 1 week prior to the experiment. Animals were fasted 48 hours, then meal-fed a synthetic diet (G-70) daily from 8-11 A.M. for the remainder of the experiment. Food consumption and body weight were measured during the meal-feeding period. […] Food spillage was measured daily.
Each group consisted of 8 to 10 (140 to 160 g) rats. Food intake was monitored for a 3 day period; the animals were dosed immediately before the 3 hr meal. Pair-fed animals were fed the amount of food which the drug treated groups ate on the previous days (days 2 and 3).
Immediately after the 3 hour feeding period, rats were administered intravenously a 0.25 ml saline (pH 7.4 to 7.6) solution with the following composition: 12.3 mg alanine, 5 μCi [^14 C] alanine (specific activity=156 mCi/mmole), 30.6 mg-ketoglutarate (as an amine acceptor for transaminase) and 1 mCi [^3 H] water (specific activity=100 mCi/g). […] [^3 H] Water was employed to determine the total rate of lipogenesis, since tritium is incorporated into fatty acids independent of the source of carbon precursors. Animals were killed by decapitation and blood collected in centrifuge tubes 30 minutes after the radioactive pulse, unless otherwise indicated. The specific radioactivity of the body water of each rat was determined by counting a diluted serum aliquot in 10 ml following cocktail: toluene (2.41), 2-methoxyethanol (1.61), naphthalene (320 g), and BBOT (2,5-bis-2-(5-tert-butylbenzoxazolyl)-thiophene, 16 g). Liver, and small intestine was excised rapidly, weighed, and homogenized in 15 ml H2 O in a Virtis 45 Macro Homogenizer for 15 sec at ca. 30,000 rpm. Duplicate 3 ml aliquots of whole homogenates were saponified, extracted, and the absolute radioactivity (dpm) determined. Liver lipids were extracted totally or separated into fatty acids and cholesterol by anion exchange chromatography. It was determined by anion exchange chromatography that the total lipid extract of liver contained fatty acids (96-97%) and cholesterol (3-4%). Data are expressed as nmoles [^14 C] alanine or μ moles [^3 H] water converted into lipid/g tissue/30 minutes. The nmoles [^14 C] alanine were calculated according to the injected load of alanine, as reported previously by A. C. Sullivan et al., Arch. Biochem. and Biophys., 150, 183 (1972). The μ moles [^3 H] water were determined as described previously by A. C. […]

[5] = Food intake in dogs, pyramiding oral doses (Examples 26 and 27); format: in vivo, beagle dogs
Protocol: Twelve beagle dogs of both sexes weighing 7.6-12.2 kg were used for this test. The test compounds were contained in gelatin capsules for oral administration to two dogs of each sex. The animals were weighed and food consumption calculated daily excluding weekends throughout the test period. Each animal received 800 grams of diet daily consisting of 400 grams of Wayne pellet dog food mixed with 400 ml distilled water. The animals received pyramiding oral doses of the test compound over the three week period. On Monday and Tuesday of the first week the animals were weighed and food consumption was recorded (control). The animals received 3 mg/kg on Wednesday and 10 mg/kg on Friday of the first week. Doses of 30, 100 and 300 mg/kg were administered on Monday, Wednesday and Friday respectively during the second week. A final dose of 1000 mg/kg was administered on Monday of the third week.
Food intake was determined by the procedure by pyramiding doses described in Example 26.

[6] = tested on: Stomach Emptying; test: Effect on stomach emptying ([14C]glucose load) in rats (Example 25); format: in vivo; settings: comparable doses
Protocol: Rats were trained to consume a 3 hr 70% glucose meal from 8 a.m. to 11 a.m. daily. On the experimental day, compounds were administered orally by intubation 30 min before a [^14 C]glucose load was given also by intubation. […] Sixty minutes later the rats were killed by decapitation; blood and stomachs were collected on ice.
Data are expressed as follows: dpm×10^3 per ml of serum and dpm×10^3 per stomach.

[7] = tested on: fatty acid and cholesterol syntheses; test: Inhibition of fatty acid, lipid and cholesterol synthesis (summary statements)
[8] = test day 20, no dose, (±) one animal, (+) and (-) two animals

O=C(O)C[C@@](O)(C(=O)O)[C@@H](Cl)C(=O)O (relative stereo) [(±)-threo-Chlorocitric acid]
Food consumption ([1]; 0.08 mmoles/kg oral): 6.4 ± 0.6 g
Food consumption ([1]; 0.17 mmoles/kg oral): 6.8 ± 0.7 g
Food consumption ([1]; 0.33 mmoles/kg oral): 5.7 ± 0.5 g
Food consumption ([1]; 0.66 mmoles/kg oral): 3.9 ± 0.3 g
Food consumption ([1]; 1.32 mmoles/kg oral): 3.1 ± 0.4 g
Food consumption ([1]; 2.63 mmoles/kg oral): 3.8 ± 0.3 g
Daily Food Consumption ([2]; Fa/- lean, 1.32 mmoles/kg oral, treatment day 1): 11.6 ± 0.8 g
Daily Food Consumption ([2]; Fa/- lean, 1.32 mmoles/kg oral, treatment day 2): 7.5 ± 0.8 g
Daily Food Consumption ([2]; Fa/- lean, 1.32 mmoles/kg oral, treatment day 3): 8.6 ± 1.3 g
Daily Food Consumption ([2]; Fa/- lean, 1.32 mmoles/kg oral, treatment day 4): 6.9 ± 1.0 g
Daily Food Consumption ([2]; Fa/- lean, 1.32 mmoles/kg oral, treatment day 5): 6.1 ± 0.7 g
Daily Food Consumption ([2]; Fa/- lean, 1.32 mmoles/kg oral, treatment day 6): 7.2 ± 1.0 g
Daily Food Consumption ([2]; Fa/- lean, 1.32 mmoles/kg, day 0 (pretreatment)): 12.3 ± 0.7 g
Daily Food Consumption ([2]; fa/fa obese, 1.32 mmoles/kg oral, treatment day 1): 13.1 ± 0.9 g
Daily Food Consumption ([2]; fa/fa obese, 1.32 mmoles/kg oral, treatment day 2): 7.8 ± 0.8 g
Daily Food Consumption ([2]; fa/fa obese, 1.32 mmoles/kg oral, treatment day 3): 6.6 ± 0.2 g
Daily Food Consumption ([2]; fa/fa obese, 1.32 mmoles/kg oral, treatment day 4): 5.9 ± 0.8 g
Daily Food Consumption ([2]; fa/fa obese, 1.32 mmoles/kg oral, treatment day 5): 4.6 ± 1.1 g
Daily Food Consumption ([2]; fa/fa obese, 1.32 mmoles/kg oral, treatment day 6): 5.3 ± 1.3 g
Daily Food Consumption ([2]; fa/fa obese, 1.32 mmoles/kg, day 0 (pretreatment)): 14.3 ± 0.8 g
Body Weight Gain ([3]; Fa/- lean): -22.9 ± 2.9 g
Body Weight Gain ([3]; fa/fa obese): -27.9 ± 4.6 g
Fatty Acid Synthesis, 3H2O converted ([4]; pair-fed control 25.6 ± 3.9): 21.4 ± 1.6 μmoles ^3 H2 O converted/g liv
Fatty Acid Synthesis, [14C]alanine converted ([4]; pair-fed control 639 ± 69): 809 ± 67 nmoles [^14 C]alanine converte
Food Consumption, % of control [5, 8]: 167 % of control
Food consumption [5, 8]: 800 g
Food consumption ([5]; test days -2, -1, before dosing (control period)): 479 ± 96 g

O=C(O)CC(O)(C(=O)O)C(O)C(=O)O (single isomer, unassigned) [hydroxycitric acid, reference compound]
delay in gastric emptying [6]: delayed gastric emptying
metabolic activity on lipid (fatty acid) and cholesterol syntheses [7]: inhibition of fatty acid and cholesterol syntheses
